Test results published in ChEMBL document CHEMBL5380809, “Discovery of Novel N-Hydroxy-1,2,4-oxadiazole-5-formamides as ASM Direct Inhibitors for the Treatment of Atherosclerosis” (J Med Chem, 2023).
Active and inactive are the calls of the source. No cut-off for these calls is given here.

How the values were obtained:
[1] = Half life in ICR mouse at 1 mg/kg, iv measured for 0.083 to 24 hrs by LC-MS/MS analysis; format: ADME, organism-based; conditions: in vivo, time 0.083-24 hrs
[2] = Tmax in ICR mouse at 1 mg/kg, iv measured for 0.083 to 24 hrs by LC-MS/MS analysis; format: ADME, organism-based; conditions: in vivo, time 0.083-24 hrs
[3] = Cmax in ICR mouse at 1 mg/kg, iv measured for 0.083 to 24 hrs by LC-MS/MS analysis; format: ADME, organism-based; set-up: time lower 0.083 hrs, dose 1 mg/kg, time upper 24 hrs, route iv; conditions: in vivo
[4] = AUC (0 to t) in ICR mouse at 1 mg/kg, iv measured for 0.083 to 24 hrs by LC-MS/MS analysis; format: ADME, organism-based; set-up: time 0.083-24 hrs, dose 1 mg/kg, route iv; conditions: in vivo
[5] = Apparent volume of distribution in ICR mouse at 1 mg/kg, iv measured for 0.083 to 24 hrs by LC-MS/MS analysis; format: ADME, organism-based; conditions: in vivo, time 0.083-24 hrs, read-out: Vz
[6] = Clearance in ICR mouse at 1 mg/kg, iv measured for 0.083 to 24 hrs by LC-MS/MS analysis; format: ADME, organism-based; conditions: in vivo, time 0.083-24 hrs
[7] = MRT (0 to infinity) in ICR mouse at 1 mg/kg, iv measured for 0.083 to 24 hrs by LC-MS/MS analysis; format: ADME, organism-based; conditions: in vivo, time 0.083-24 hrs
[8] = Half life in ICR mouse at 10 mg/kg, po measured for 0.083 to 24 hrs by LC-MS/MS analysis; format: ADME, organism-based; conditions: in vivo, time 0.083-24 hrs
[9] = Tmax in ICR mouse at 10 mg/kg, po measured for 0.083 to 24 hrs by LC-MS/MS analysis; format: ADME, organism-based; conditions: in vivo, time 0.083-24 hrs
[10] = Cmax in ICR mouse at 10 mg/kg, po measured for 0.083 to 24 hrs by LC-MS/MS analysis; format: ADME, organism-based; set-up: time upper 24 hrs, time lower 0.083 hrs, dose 10 mg/kg, route po; conditions: in vivo
[11] = AUC (0 to t) in ICR mouse at 10 mg/kg, po measured for 0.083 to 24 hrs by LC-MS/MS analysis; format: ADME, organism-based; set-up: time upper 24 hrs, time lower 0.083 hrs, dose 10 mg/kg, route po; conditions: in vivo
[12] = MRT (0 to t) in ICR mouse at 10 mg/kg, po measured for 0.083 to 24 hrs by LC-MS/MS analysis; format: ADME, organism-based; conditions: in vivo, time 0.083-24 hrs
[13] = Oral bioavailability in ICR mouse at 10 mg/kg measured for 0.083 to 24 hrs by LC-MS/MS analysis; format: ADME, organism-based; conditions: in vivo, time 0.083-24 hrs
[14] = system: Mus musculus; experiment: In vivo inhibition of aSMase in C57BL/6 mouse assessed as decrease in liver ceramide level at 6 to 40 mg/kg, ip bid for 1 week by ELISA method; format: functional, organism-based; conditions: dose 6-40 mg/kg, time 1.0 weeks
[15] = system: Mus musculus; experiment: In vivo inhibition of aSMase in C57BL/6 mouse assessed as decrease in liver S1P level at 6 to 40 mg/kg, ip bid for 1 week by ELISA method; format: functional, organism-based; conditions: dose 6-40 mg/kg, time 1.0 weeks
[16] = system: Mus musculus; experiment: In vivo inhibition of aSMase in C57BL/6 mouse assessed as decrease in liver sphingomyelin level at 6 to 40 mg/kg, ip bid for 1 week by ELISA method; format: functional, organism-based; conditions: dose 6-40 mg/kg, time 1.0 weeks
[17] = system: Mus musculus; experiment: In vivo inhibition of aSMase in C57BL/6 mouse assessed as decrease in plasma ceramide level at 6 to 40 mg/kg, ip bid for 1 week by ELISA method; format: functional, organism-based; conditions: dose 6-40 mg/kg, time 1.0 weeks
[18] = system: Mus musculus; experiment: In vivo inhibition of aSMase in C57BL/6 mouse assessed as decrease in plasma sphingomyelin level at 6 to 40 mg/kg, ip bid for 1 week by ELISA method; format: functional, organism-based; conditions: dose 6-40 mg/kg, time 1.0 weeks
[19] = system: Mus musculus; experiment: Antiatherosclerotic activity in high-fat diet fed ApoE-/- mouse assessed as reduction in lipid plaque area administered intraperitoneally twice daily measured after 8 weeks by oil red O staining based analysis; format: functional, organism-based; conditions: dose 12-40 mg/kg, route ip
[20] = system: Mus musculus; experiment: Antiatherosclerotic activity in high-fat diet fed ApoE-/- mouse assessed as reduction in plasma total triacylglycerol level at 12 to 40 mg/kg, ip bid measured after 8 weeks; format: functional, organism-based; conditions: dose 12-40 mg/kg
[21] = system: Mus musculus; experiment: Antiatherosclerotic activity in high-fat diet fed ApoE-/- mouse assessed as reduction in plasma Ox-LDL-C level at 40 mg/kg, ip bid measured after 8 weeks; format: functional, organism-based
[22] = system: HUVEC; experiment: Antiinflammatory activity against HUVEC cells assessed as decrease in LPS-induced IL-6 level measured after 22 hrs by ELISA method; format: functional, cell-based; conditions: Homo sapiens, dose 1-5 µM
[23] = system: HUVEC; experiment: Antiinflammatory activity against HUVEC cells assessed as decrease in LPS-induced TNF-alpha level measured after 22 hrs by ELISA method; format: functional, cell-based; conditions: Homo sapiens, dose 1-5 µM
[24] = system: HUVEC; experiment: Antiinflammatory activity against HUVEC cells assessed as decrease in Ox-LDL-induced MCP-1 mRNA level at 5 uM measured after 22 hrs by RT-PCR analysis; format: functional, cell-based; conditions: Homo sapiens
[25] = system: HUVEC; experiment: Upregulation of extracellular sphingomyelin level in HUVEC cells upto 5 uM measured after 22 hrs by ELISA method; format: functional, cell-based; conditions: Homo sapiens
[26] = system: HUVEC; experiment: Downregulation of extracellular ceramide level in HUVEC cells upto 5 uM measured after 22 hrs by ELISA method; format: functional, cell-based; conditions: Homo sapiens
[27] = system: HUVEC; experiment: Upregulation of extracellular sphingomyelin level in Ox-LDL-induced HUVEC cells upto 5 uM measured after 22 hrs by ELISA method; format: functional, cell-based; conditions: Homo sapiens
[28] = system: HUVEC; experiment: Downregulation of extracellular ceramide level in Ox-LDL-induced HUVEC cells upto 5 uM measured after 22 hrs by ELISA method; format: functional, cell-based; conditions: Homo sapiens
[29] = system: HUVEC; experiment: Effect on extracellular S1P level in HUVEC cells upto 5 uM measured after 22 hrs by ELISA method; format: functional, cell-based; conditions: Homo sapiens
[30] = system: HUVEC; experiment: Upregulation of intracellular sphingomyelin level in HUVEC cells measured after 22 hrs by ELISA method; format: functional, cell-based; conditions: Homo sapiens, dose <= 5.0 µM
[31] = system: HUVEC; experiment: Downregulation of intracellular ceramide level in HUVEC cells at 5 uM measured after 22 hrs by ELISA method; format: functional, cell-based; conditions: Homo sapiens
[32] = system: HUVEC; experiment: Upregulation of intracellular sphingomyelin level in LPS-induced HUVEC cells measured after 22 hrs by ELISA method; format: functional, cell-based; conditions: Homo sapiens, dose <= 5.0 µM
[33] = system: HUVEC; experiment: Downregulation of intracellular ceramide level in Ox-LDL-induced HUVEC cells at 5 uM measured after 22 hrs by ELISA method; format: functional, cell-based; conditions: Homo sapiens

SMILES: O=C(NO)c1nc(-c2ccc(COc3ccc(Br)cc3)cc2)no1
- half-life [1]: 12 min
- Tmax [2]: 4.98 min
- Cmax [3]: 787 ng/mL
- AUC(0-t) [4]: 227 ng·h/mL
- Vd [5]: 1.28 L/kg
- clearance [6]: 73.2 mL/min/kg
- MRT inf [7]: 5.22 min
- half-life [8]: 49.8 min
- Tmax [9]: 4.98 min
- Cmax [10]: 2760 ng/mL
- AUC(0-t) [11]: 805 ng·h/mL
- MRT last [12]: 19.2 min
- bioavailability [13]: 35.4%
- Activity [14]: Active
- Activity [15]: Active
- Activity [16]: Active
- Activity [17]: Active
- Activity [18]: Active
- Activity [19]: Dose-Dependent Effect
- Activity [20]: inactive
- Activity [21]: Active
- Activity [22]: Dose-Dependent Effect
- Activity [23]: Dose-Dependent Effect
- Activity [24]: Active
- Activity [25]: Active
- Activity [26]: Active
- Activity [27]: Active
- Activity [28]: Active
- Activity [29]: inactive
- Activity [30]: Dose-Dependent Effect
- Activity [31]: Active
- Activity [32]: Dose-Dependent Effect
- Activity [33]: Active
